Experimental data: patent US12391660B2, “Heteroaromatic acetamide derivative, and preparation and use thereof” (Hangzhou Westan Pharmaceutical Technology Co., Ltd, priority 2019, dated 2025)

Tests used:
human TRPC6 = human TRPC6 (Homo sapiens (Human), UniProt Q9Y210); test: Inhibitory activity on human TRPC6 by conventional patch clamp assay; assay type: cell-based; conditions: HEK293 human TRPC6, read-out: TRPC6 Inhibition rate (5 μM)
Method: 3. Inhibitory Activity on Human TRPC6 by Conventional Patch Clamp Assay
In order to test the selectivity of the compounds in TRPA1 inhibition, a conventional patch clamp method was used to further measure the inhibitory activity of compounds on TRPC6. The principle and procedures of the conventional patch clamp assay could be found in the literature report of Ambrus et al [Ambrus et al. J Cell and Mol Med 2015, 19 (12):2771-9].
(§1) Evaluation of TRPC6 inhibitory activity of compounds was conducted using the HEK293 recombinant cell strain (Creative Biogene, NY) stably expressing human TRPC6. Cells were cultured in a DMEM/F12 (3:1, Thermo Fisher Scientific) medium (containing 5% calf serum, 2 mM glutamine and 20 mM HEPES) in an incubator at 37° C. and air humidity containing 5% CO2.
(§2) During the experiment, the adherent cells were placed in a recording room under the inverted microscope. All experiments were performed at room temperature. Each cell itself was used as a control thereof.
Test compounds at a final concentration were all prepared on the testing day and then dissolved in the extracellular fluid. The extracellular fluid was (mM): NaCl, 137; KCl, 4; CaCl2, 1.8; MgCl2, 1; HEPES, 10; glucose 10; pH 7.4 (NaOH titration). Low-Ca extracellular fluid was (mM): NaCl, 138.3; KCl, 4; CaCl2, 0.5; MgCl2, 1; HEPES, 10; glucose 10; pH 7.4 (NaOH titration). […]

human TRPA1 = human TRPA1 (Homo sapiens (Human), UniProt O75762); test: Inhibitory activity on human TRPA1 by conventional patch clamp assay; assay type: cell-based; conditions: for inhibition at 5 µM: read-out: TRPA1 % Inhibition rate (5 μM); for IC50: HEK293 human TRPA1, 100 μM cinnamaldehyde
Description: 2. Inhibitory Activity on Human TRPA1 by Conventional Patch Clamp Assay
In order to compare the influences of different measuring methods on the inhibitory activity of compounds, a conventional patch clamp method was used to further measure the inhibitory activity of compounds 1, 11, 31, 50, and 78 on TRPA1. The principle and procedures of the conventional patch clamp assay could be found in the literature report of Chen et al [Chen et al. Pain 2011, 152(5):1165-72].
as §1, with “TRPA1” for “TRPC6”, “TRPA1.” for “TRPC6.”
as §2
Test compounds at a final concentration were all prepared on the testing day and then dissolved in the extracellular fluid. The extracellular fluid was (mM): NaCl, 137; KCl, 4; CaCl2, 1.8; MgCl2, 1; HEPES, 10; glucose 10; pH 7.4 (NaOH titration). All the solutions of the test compounds and control compounds contained 0.3% DMSO.
The compounds were all perfused with a perfusion system by virtue of their own gravity. At least two cells were tested for each concentration of the compound. After the current became stable, the variation in magnitude of the current before and after the compound was used to calculate the blocking effect of the compound. 100 μM cinnamaldehyde was used as the positive control.
The cells were transferred to the perfusion tank and perfused with extracellular fluid. The intracellular fluid was: 130 mM K-aspartate; 5 mM MgCl2; 5 mM EGTA; 10 mM
HEPES; pH 7.2 (KOH titration). The intracellular fluid was stored in a small amount in a −80 degree refrigerator in batches, and thawed on the day of the experiment. The electrode was pulled with PC-10 (Narishige, Japan). Whole-cell patch clamp recording was adopted and noise was filtered at one-fifth of the sampling frequency.
The cells were clamped at 20 mV, and then depolarized to 80 mV with a square wave of 500 milliseconds to obtain the TRPA1 current (see FIG. 1).
This procedure was repeated every 3 seconds. Cells were patched in a normal extracellular fluid, current A was obtained via voltage procedure testing, and then perfusion was conducted with an extracellular fluid added with 100 μM cinnamaldehyde to activate TRPA1 current to obtain current B. After the current stabilized, elution was conducted with normal extracellular fluid and perfusion was conducted with an extracellular fluid added with 100 μM cinnamaldehyde and a compound at various concentrations to obtain current C. Finally, blocking rate of the compound was obtained according to […], see FIG. 2.
Data collection and analysis was conducted using pCLAMP 10 (Molecular Devices, Union City, CA). Current stabilization meant that the variation in the current with time was within a limited range. The magnitude of the current after stabilization was used to reflect the effect of the compound in this process.

Sequence of human TRPA1 (O75762 whole entry): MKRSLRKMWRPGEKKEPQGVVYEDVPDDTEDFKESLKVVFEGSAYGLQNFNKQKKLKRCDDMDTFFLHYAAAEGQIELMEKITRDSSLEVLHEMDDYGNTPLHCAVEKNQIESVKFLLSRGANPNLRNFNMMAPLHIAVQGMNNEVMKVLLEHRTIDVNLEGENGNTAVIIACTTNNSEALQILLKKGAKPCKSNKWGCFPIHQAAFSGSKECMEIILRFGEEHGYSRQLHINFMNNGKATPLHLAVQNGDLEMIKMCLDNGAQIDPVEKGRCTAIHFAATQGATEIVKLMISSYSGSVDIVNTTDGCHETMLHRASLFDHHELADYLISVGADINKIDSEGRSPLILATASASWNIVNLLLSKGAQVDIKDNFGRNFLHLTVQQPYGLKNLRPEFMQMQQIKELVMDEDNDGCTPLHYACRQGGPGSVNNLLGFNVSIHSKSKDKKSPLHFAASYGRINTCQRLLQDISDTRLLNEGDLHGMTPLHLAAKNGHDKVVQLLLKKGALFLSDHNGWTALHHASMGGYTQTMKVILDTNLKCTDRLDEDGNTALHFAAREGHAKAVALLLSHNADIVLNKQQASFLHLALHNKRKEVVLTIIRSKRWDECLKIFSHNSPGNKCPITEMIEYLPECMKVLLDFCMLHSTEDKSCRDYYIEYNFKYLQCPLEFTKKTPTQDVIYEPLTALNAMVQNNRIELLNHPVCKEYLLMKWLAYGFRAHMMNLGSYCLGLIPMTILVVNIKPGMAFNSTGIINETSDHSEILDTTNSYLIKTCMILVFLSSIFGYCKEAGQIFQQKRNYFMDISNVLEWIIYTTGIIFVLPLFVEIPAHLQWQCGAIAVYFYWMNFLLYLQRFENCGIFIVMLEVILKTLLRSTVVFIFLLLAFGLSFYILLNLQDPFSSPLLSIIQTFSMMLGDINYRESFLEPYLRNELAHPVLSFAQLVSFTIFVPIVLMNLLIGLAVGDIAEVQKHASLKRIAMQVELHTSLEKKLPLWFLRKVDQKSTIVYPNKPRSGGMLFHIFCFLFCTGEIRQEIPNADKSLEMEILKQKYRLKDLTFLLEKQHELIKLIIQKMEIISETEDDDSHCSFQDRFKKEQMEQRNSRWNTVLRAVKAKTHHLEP
Sequence of human TRPC6 (Q9Y210 whole entry): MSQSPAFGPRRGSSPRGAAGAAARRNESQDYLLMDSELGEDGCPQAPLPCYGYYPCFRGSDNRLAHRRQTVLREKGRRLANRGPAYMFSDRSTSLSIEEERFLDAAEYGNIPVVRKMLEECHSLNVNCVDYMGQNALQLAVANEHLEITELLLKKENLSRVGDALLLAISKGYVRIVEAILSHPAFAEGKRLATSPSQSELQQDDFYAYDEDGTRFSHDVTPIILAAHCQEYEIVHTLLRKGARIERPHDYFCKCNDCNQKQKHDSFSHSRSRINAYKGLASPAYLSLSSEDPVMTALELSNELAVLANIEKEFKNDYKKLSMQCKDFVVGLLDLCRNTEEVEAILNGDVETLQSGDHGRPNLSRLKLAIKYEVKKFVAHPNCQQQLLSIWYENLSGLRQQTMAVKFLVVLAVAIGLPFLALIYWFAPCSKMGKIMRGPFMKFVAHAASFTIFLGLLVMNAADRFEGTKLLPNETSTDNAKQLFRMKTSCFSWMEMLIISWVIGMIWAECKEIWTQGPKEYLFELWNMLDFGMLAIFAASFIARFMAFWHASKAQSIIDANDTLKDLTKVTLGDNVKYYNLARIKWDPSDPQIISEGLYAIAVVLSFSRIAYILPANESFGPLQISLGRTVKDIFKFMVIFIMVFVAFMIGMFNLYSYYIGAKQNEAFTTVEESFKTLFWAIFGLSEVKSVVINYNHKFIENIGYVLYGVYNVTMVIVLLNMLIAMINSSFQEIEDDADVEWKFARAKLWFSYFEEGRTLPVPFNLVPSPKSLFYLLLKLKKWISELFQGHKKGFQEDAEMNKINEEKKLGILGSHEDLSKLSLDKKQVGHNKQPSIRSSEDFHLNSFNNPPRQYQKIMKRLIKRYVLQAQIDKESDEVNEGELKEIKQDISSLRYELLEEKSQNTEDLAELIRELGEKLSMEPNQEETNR

| Compound | inhibition at 5 µM (human TRPC6) [%] | inhibition at 5 µM (human TRPA1) [%] | IC50 (human TRPA1) [nM] |
| --- | --- | --- | --- |
| N#Cc1ccc(NC2(C(=O)N3CCN(c4ccc(C(F)(F)F)cc4)CC3)CCCC2)cc1 [Compound 1, 4-((1-(4-(4-(trifluoromethyl)phenyl)piperazine-1-carbonyl)cyclopentyl)amino)benzonitrile] | -60 | 99 | 56 |
| CC(C)(C)C1CCN(C(=O)C2(Nc3ccc(C#N)cc3)CCCC2)CC1 [Compound 31, 4-((1-(4-(tert-butyl)piperidine-1-carbonyl)cyclopentyl)amino)benzonitrile] | 26 | 117 | 98 |
